Measured values as given in article PMC7785020, “A unique hormonal recognition feature of the human glucagon-like peptide-2 receptor” (Cell Research, 2020).
Residue numbers refer to the chain shown, from its start.

Legend:
GLP-2R Y186^1.47A = target: T1, GLP-2R Y186^1.47A (Homo sapiens, UniProt O95838, Y186A); experiment: cAMP accumulation, Y186^1.47A; assay type: cell-based; set-up: WT (1–553); expressed in transfected cells; HEK 293T (cAMP); conditions: Table S3, Y186A; HEK 293T, 30 min, RT; mean ± SEM, n ≥ 3 in duplicate; read-out: cAMP Emax (% WT)
T1 sequence (O95838 1-553 Y186A): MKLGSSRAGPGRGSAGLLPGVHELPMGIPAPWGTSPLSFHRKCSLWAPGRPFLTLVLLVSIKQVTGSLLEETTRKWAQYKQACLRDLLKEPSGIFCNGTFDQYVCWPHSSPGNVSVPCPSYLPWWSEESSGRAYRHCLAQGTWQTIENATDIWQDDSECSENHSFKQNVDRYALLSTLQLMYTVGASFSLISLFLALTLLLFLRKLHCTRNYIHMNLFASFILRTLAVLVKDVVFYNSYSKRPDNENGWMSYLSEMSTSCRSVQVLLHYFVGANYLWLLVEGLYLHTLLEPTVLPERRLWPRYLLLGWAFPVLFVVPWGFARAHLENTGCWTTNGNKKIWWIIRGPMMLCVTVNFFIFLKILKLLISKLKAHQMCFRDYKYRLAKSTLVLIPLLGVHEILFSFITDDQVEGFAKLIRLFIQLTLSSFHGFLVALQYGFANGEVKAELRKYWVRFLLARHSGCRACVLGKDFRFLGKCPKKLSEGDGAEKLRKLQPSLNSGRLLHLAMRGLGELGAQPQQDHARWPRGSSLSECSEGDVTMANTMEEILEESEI
Protocol: (§1) HEK 293T cells were cultured in Dulbecco’s Modified Eagle’s Medium (DMEM) (Gibco, Waltham, USA) supplemented with 10% (v/v) fetal bovine serum (FBS) (Gibco) and 1% (v/v) sodium pyruvate (Gibco) at 37 °C, 5% CO2 in a humidified incubator. They were seeded onto 6-well cell culture plates and transiently transfected with different GLP-2R constructs using Lipofectamine 2000 transfection reagent (Invitrogen, Carlsbad, CA, USA). After 24 h, the transfected cells were seeded onto 384-well microtiter plates (3000 cells per well) in HBSS supplemented with 5 mM HEPES, 0.1% (w/v) bovine serum albumin (BSA) and 0.5 mM 3-isobutyl-1- methylxanthine, and stimulated with increasing concentrations of GLP-2 for 30 min at RT. Eu and Ulight were diluted by cAMP detection buffer and added to the plates separately to terminate the reaction. Plates were incubated at RT for 60 min before measuring the fluorescence intensity at 620 nm and […] by an EnVision multilabel plate reader (PerkinElmer, Boston, USA).

GLP-2R R344^5.40A = target: T2, GLP-2R R344^5.40A (Homo sapiens, UniProt O95838, R344A); experiment: cAMP accumulation, R344^5.40A; assay type: cell-based; conditions: Table S3, R344A; HEK 293T, 30 min, RT; mean ± SEM, n ≥ 3 in duplicate; read-out: cAMP Emax (% WT)
T2 sequence (O95838 1-553 R344A): T1 sequence (O95838 1-553 Y186A) with A186Y, R344A
Protocol: as §1

dipeptidyl peptidase 4 = conditions: cited from earlier work
Text: GLP-2R belongs to class B GPCR subfamily, which is mainly expressed in the gut, pancreas and brain.[1] […] GLP-2 is encoded by the proglucagon gene and becomes active after post-translational processing by prohormone convertases. As a gastrointestinal hormone, it mainly regulates intestinal epithelial cell growth and functions that are crucial for digestion and absorption of nutrients.[2]

GLP-2R N334^ECL2A = target: T3, GLP-2R N334^ECL2A (Homo sapiens, UniProt O95838, N334A); experiment: cAMP accumulation, N334^ECL2A; assay type: cell-based; set-up: GLP-2R (1-553) (WT); expressed in transfected cells; host or cells: HEK 293T; conditions: Table S3, N334A; HEK 293T, 30 min, RT; mean ± SEM, n ≥ 3 in duplicate; read-out: cAMP Emax (% WT)
T3 sequence (O95838 1-553 N334A): T1 sequence (O95838 1-553 Y186A) with A186Y, N334A
Protocol: as §1

CC[C@H](C)[C@H](NC(=O)[C@H](Cc1ccccc1)NC(=O)[C@H](CC(=O)O)NC(=O)[C@H](CCCNC(=N)N)NC(=O)[C@H](C)NC(=O)[C@H](C)NC(=O)[C@H](CC(C)C)NC(=O)[C@H](CC(N)=O)NC(=O)[C@H](CC(=O)O)NC(=O)[C@H](CC(C)C)NC(=O)[C@@H](NC(=O)[C@@H](NC(=O)[C@H](CC(N)=O)NC(=O)[C@H](CCSC)NC(=O)[C@H](CCC(=O)O)NC(=O)[C@H](CC(=O)O)NC(=O)[C@H](CO)NC(=O)[C@H](Cc1ccccc1)NC(=O)[C@H](CO)NC(=O)CNC(=O)[C@H](CC(=O)O)NC(=O)[C@H](C)NC(=O)[C@@H](N)Cc1c[nH]cn1)[C@@H](C)O)[C@@H](C)CC)C(=O)N[C@@H](CC(N)=O)C(=O)N[C@@H](Cc1c[nH]c2ccccc12)C(=O)N[C@@H](CC(C)C)C(=O)N[C@H](C(=O)N[C@@H](CCC(N)=O)C(=O)N[C@H](C(=O)N[C@@H](CCCCN)C(=O)N[C@H](C(=O)N[C@H](C(=O)N[C@@H](CC(=O)O)C(=O)O)[C@@H](C)O)[C@@H](C)CC)[C@@H](C)O)[C@@H](C)CC [Human GLP-2 (1–33)]
Emax (GLP-2R Y186^1.47A): 100 ± 2.8%
Emax (GLP-2R R344^5.40A): 109 ± 2.8%
inactivation by dipeptidyl peptidase 4 in vivo (in words) (dipeptidyl peptidase 4): rapidly inactivated by dipeptidyl peptidase 4 in vivo
Emax (GLP-2R N334^ECL2A): 103 ± 2.9%
